Measurements reported in patent EP4745137A1 (Gluetacs Therapeutics (Shanghai) Co., Ltd., priority 2023, dated 2025).
Read-outs that look alike come from different tables or passages of the source.

Assays:
[1] = target: T1, CK1α (Homo sapiens, UniProt P48729+Q96SW2); assay: Western-blot assay of substrate protein degradation in hPBMCs, CK1α; type: cell-based; settings: 24 hours of compound treatment
T1 construct: endogenous in cells; host or cells: hPBMCs (Milecell Biotechnologies)

[2] = target: T2, WEE1 (Homo sapiens, UniProt P30291+Q96SW2); assay: Western-blot assay of substrate protein degradation in hPBMCs, WEE1; type: cell-based; settings: 24 hours of compound treatment
T2 construct: endogenous in cells; host or cells: hPBMCs (Milecell Biotechnologies)

[3] = target: T3, GSPT1 (Homo sapiens, UniProt P15170+Q96SW2); assay: Western-blot assay of substrate protein degradation in hPBMCs, GSPT1; type: cell-based; settings: 24 hours of compound treatment
T3 construct: endogenous in cells; host or cells: hPBMCs (Milecell Biotechnologies)

[4] = test system: CCRF-CEM; assay: Tumor cell proliferation inhibition (CellTiter-Meiluncell Luminescent Cell Viability Assay), CCRF-CEM; settings: Homo sapiens, 96 h, read-out: inhibitory activity (IC50, nM) against tumor cells proliferation, CCRF-CEM
Protocol: The tumor cells used herein were cultured in a cell culture medium listed in table 2 at 37°C in an incubator with 5% CO2. Prior to experimentation, all cell lines used were correctly identified by STR profiling, and tested negative for mycoplasma contamination using a mycoplasma detection kit through routine screenings.
On the following day, the test compounds of the present disclosure were subjected to serial dilution. […] Subsequently, 0.5 µL of the test compound dilution was transferred into the 96-well plate containing the cells, with each well containing 100 µL of cell culture medium. […] Into the 96-well plate, the diluted test compounds and corresponding detection reagents were added, resulting in final test compound concentrations of 500 nM and 10 nM, respectively. The experimental procedure is described below using the diluted 2 µM test compound as an example.
After the cells were treated with the compounds of the present disclosure for a specified period (the treatment durations were shown in Table 3), the cell viability assay reagent was added to the culture medium according to the kit's instructions to determine cell viability. […] All controls were treated using the same procedure as the compounds of the present disclosure. The growth inhibition curves for the compounds of the present disclosure were plotted using Prism GraphPad software, and the IC50 values were calculated therefrom.

[5] = target: T4, IKZF3 (Homo sapiens, UniProt Q96SW2+Q9UKT9); assay: Western-blot assay of substrate protein degradation in hPBMCs, IKZF3; type: cell-based; settings: 24 hours of compound treatment
T4 construct: endogenous in cells; host or cells: hPBMCs (Milecell Biotechnologies)

[6] = test system: MM.1R; assay: Tumor cell proliferation inhibition (CellTiter-Meiluncell Luminescent Cell Viability Assay), MM.1R; settings: Homo sapiens, 96 h, read-out: inhibitory activity (IC50, nM) against tumor cells proliferation, MM.1R
[7] = target: T5, IKZF2 (Homo sapiens, UniProt Q96SW2+Q9UKS7); assay: Western-blot assay of substrate protein degradation in hPBMCs, IKZF2; type: cell-based; settings: 24 hours of compound treatment
T5 construct: endogenous in cells; host or cells: hPBMCs (Milecell Biotechnologies)

[8] = target: T6, human Cereblon WT GST-tagged protein (Homo sapiens, UniProt Q96SW2); assay: CRBN-binding affinity by HTRF (CEREBLON BINDING kit); settings: HTRF inhibitory activity, CEREBLON BINDING kit; read-out: HTRF IC50
T6 construct: purchased CISBIO 64BDCRBNPEH

[9] = test system: Human acute T lymphocytic leukemia cells (Molt-4); assay: Tumor cell proliferation inhibition (CellTiter-Meiluncell Luminescent Cell Viability Assay), Molt-4; settings: MOLT-4, 96 h, read-out: inhibitory activity (IC50, nM) against tumor cells proliferation, Molt 4
[10] = test system: Jurkat; assay: Tumor cell proliferation inhibition (CellTiter-Meiluncell Luminescent Cell Viability Assay), Jurkat; settings: Homo sapiens, read-out: inhibitory activity (IC50, nM) against tumor cells proliferation, Jurkat
[11] = target: T7, IKZF1 (Homo sapiens, UniProt Q13422+Q96SW2); assay: Western-blot assay of substrate protein degradation in hPBMCs, IKZF1; type: cell-based; settings: 24 hours of compound treatment
T7 construct: endogenous in cells; host or cells: hPBMCs (Milecell Biotechnologies)

[12] = test system: CAL-62; assay: Tumor cell proliferation inhibition (CellTiter-Meiluncell Luminescent Cell Viability Assay), CAL-62; settings: Homo sapiens, CAL-62, 96 h, read-out: inhibitory activity (IC50, nM) against tumor cells proliferation, CAL-62
[13] = test system: Human breast cancer cells (MDA-MB-231); assay: Tumor cell proliferation inhibition (CellTiter-Meiluncell Luminescent Cell Viability Assay), MDA-MB-231; settings: MDA-MB-231, 96 h, read-out: inhibitory activity (IC50, nM) against tumor cells proliferation, MDA-MB-231
[14] = test system: NCI-H1975; assay: Tumor cell proliferation inhibition (CellTiter-Meiluncell Luminescent Cell Viability Assay), NCI-H1975; settings: Homo sapiens, NCI-H1975, 96 h, read-out: inhibitory activity (IC50, nM) against tumor cells proliferation, H1975
[15] = compounds tested at 50 nM and 500 nM (concentration of the table not stated)
[16] = 50 nM and 500 nM tested (concentration behind the class not stated)

T7 sequence (Q13422 whole entry): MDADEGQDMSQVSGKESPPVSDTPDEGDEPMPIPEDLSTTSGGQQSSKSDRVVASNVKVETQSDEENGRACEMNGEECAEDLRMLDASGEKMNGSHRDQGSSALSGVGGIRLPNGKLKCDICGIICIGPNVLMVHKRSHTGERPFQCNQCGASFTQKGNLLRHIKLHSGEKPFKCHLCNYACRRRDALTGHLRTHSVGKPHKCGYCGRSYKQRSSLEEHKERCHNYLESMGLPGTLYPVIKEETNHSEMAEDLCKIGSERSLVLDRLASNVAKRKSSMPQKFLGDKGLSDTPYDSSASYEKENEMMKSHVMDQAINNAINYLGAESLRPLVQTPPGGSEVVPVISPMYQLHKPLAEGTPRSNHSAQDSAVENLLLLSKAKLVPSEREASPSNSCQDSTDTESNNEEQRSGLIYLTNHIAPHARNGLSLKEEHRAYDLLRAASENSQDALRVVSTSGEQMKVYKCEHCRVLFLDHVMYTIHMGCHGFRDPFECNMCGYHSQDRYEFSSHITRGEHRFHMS
T7 sequence (Q96SW2 whole entry): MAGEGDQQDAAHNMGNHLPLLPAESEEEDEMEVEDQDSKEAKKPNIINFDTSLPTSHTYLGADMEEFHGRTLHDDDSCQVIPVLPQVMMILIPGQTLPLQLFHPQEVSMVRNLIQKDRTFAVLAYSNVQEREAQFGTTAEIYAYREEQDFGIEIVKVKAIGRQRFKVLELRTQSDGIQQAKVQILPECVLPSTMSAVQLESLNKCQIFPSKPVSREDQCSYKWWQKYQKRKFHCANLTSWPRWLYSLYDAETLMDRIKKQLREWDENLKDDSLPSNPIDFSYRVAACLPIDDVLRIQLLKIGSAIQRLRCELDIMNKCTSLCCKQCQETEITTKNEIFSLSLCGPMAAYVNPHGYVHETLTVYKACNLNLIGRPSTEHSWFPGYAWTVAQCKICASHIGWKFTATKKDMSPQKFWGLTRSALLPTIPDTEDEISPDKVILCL
T7 sequence (Q16531 whole entry partner): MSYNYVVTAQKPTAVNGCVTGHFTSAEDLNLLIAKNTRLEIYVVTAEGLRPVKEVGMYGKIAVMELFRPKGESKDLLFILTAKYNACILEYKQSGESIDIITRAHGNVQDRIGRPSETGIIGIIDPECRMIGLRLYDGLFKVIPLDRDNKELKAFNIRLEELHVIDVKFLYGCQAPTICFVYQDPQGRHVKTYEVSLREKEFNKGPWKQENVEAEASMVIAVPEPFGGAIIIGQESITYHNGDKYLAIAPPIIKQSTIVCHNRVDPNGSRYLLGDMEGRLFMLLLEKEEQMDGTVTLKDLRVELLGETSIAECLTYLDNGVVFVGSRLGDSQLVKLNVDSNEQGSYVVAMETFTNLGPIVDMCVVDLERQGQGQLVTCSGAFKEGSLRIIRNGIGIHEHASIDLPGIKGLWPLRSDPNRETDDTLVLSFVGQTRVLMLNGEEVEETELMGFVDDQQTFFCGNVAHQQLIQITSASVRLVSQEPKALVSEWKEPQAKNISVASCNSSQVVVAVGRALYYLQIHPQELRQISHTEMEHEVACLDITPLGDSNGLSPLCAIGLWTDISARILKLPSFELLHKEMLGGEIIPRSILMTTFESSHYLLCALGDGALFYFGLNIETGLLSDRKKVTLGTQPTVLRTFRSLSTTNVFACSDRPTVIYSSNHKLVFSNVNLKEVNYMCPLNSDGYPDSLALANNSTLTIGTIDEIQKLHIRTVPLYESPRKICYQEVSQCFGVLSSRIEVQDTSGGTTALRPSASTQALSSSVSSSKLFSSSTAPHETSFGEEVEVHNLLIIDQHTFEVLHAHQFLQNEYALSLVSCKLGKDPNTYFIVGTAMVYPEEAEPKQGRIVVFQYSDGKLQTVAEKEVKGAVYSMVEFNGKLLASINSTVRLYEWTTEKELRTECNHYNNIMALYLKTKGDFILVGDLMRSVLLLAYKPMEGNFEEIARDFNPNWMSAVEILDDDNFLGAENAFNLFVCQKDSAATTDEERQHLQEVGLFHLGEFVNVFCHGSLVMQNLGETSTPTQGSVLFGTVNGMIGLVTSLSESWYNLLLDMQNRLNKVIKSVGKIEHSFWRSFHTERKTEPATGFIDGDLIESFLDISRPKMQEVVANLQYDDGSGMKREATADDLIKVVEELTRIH
T2 sequence (P30291 whole entry): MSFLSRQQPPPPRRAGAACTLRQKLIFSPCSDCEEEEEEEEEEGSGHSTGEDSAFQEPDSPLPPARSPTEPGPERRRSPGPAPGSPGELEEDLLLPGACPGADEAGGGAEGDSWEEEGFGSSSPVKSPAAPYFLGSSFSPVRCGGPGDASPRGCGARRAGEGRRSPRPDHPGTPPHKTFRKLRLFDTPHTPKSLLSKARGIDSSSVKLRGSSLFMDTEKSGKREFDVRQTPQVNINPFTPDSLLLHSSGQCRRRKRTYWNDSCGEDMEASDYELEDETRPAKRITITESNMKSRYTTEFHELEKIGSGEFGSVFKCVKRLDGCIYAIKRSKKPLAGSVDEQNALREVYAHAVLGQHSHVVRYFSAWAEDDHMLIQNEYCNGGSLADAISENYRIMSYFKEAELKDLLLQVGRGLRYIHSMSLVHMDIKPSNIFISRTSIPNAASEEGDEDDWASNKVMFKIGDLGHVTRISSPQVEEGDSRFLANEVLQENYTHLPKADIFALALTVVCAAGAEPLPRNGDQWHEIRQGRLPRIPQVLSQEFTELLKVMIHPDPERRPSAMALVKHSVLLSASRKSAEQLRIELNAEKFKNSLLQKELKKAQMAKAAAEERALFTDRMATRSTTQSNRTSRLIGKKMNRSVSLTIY
T2 sequence (Q96SW2 whole entry): as the sequence (Q96SW2 whole entry) above
T2 sequence (Q16531 whole entry partner): as the sequence (Q16531 whole entry partner) above
T1 sequence (P48729 whole entry): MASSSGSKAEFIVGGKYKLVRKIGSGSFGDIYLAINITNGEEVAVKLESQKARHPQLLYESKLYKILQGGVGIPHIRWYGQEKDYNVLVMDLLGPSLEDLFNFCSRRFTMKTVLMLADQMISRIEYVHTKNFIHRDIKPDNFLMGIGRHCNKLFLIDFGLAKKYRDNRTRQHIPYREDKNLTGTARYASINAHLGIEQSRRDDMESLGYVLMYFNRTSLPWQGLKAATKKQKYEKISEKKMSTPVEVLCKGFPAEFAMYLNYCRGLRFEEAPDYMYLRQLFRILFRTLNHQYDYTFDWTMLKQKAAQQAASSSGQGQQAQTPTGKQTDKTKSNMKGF
T1 sequence (Q96SW2 whole entry): as the sequence (Q96SW2 whole entry) above
T1 sequence (Q16531 whole entry partner): as the sequence (Q16531 whole entry partner) above
T6 sequence (Q96SW2 whole entry): as the sequence (Q96SW2 whole entry) above
T5 sequence (Q9UKS7 whole entry): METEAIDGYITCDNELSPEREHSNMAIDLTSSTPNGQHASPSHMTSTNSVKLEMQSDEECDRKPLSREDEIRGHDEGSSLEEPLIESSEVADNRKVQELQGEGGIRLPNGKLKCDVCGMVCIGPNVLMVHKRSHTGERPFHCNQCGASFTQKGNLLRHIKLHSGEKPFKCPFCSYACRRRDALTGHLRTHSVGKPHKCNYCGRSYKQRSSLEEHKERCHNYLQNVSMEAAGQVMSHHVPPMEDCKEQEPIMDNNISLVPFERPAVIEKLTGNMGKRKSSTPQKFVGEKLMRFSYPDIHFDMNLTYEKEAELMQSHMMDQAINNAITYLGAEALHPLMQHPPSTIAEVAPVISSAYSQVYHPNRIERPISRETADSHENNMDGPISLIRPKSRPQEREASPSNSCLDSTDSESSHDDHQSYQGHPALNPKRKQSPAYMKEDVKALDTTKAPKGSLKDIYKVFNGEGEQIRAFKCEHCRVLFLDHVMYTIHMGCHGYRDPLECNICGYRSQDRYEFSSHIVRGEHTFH
T5 sequence (Q96SW2 whole entry): as the sequence (Q96SW2 whole entry) above
T5 sequence (Q16531 whole entry partner): as the sequence (Q16531 whole entry partner) above
T3 sequence (P15170 whole entry): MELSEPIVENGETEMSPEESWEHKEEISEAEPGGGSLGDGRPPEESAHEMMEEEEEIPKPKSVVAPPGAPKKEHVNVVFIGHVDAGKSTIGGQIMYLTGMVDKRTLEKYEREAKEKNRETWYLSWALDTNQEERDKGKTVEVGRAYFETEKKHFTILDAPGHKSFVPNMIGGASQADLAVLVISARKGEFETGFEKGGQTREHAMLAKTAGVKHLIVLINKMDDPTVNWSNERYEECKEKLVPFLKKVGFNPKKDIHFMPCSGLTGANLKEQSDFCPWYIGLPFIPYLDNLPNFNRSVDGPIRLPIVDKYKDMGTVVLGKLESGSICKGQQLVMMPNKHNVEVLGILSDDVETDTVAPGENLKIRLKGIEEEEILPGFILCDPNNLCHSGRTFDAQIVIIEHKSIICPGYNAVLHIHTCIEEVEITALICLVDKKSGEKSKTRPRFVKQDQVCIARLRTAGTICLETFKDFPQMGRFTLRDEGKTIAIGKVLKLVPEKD
T3 sequence (Q96SW2 whole entry): as the sequence (Q96SW2 whole entry) above
T3 sequence (Q16531 whole entry partner): as the sequence (Q16531 whole entry partner) above

Row | IC50 [6] [nM] | IC50 [8] [nM] | IC50 [9] [nM] | IC50 ([10]; 96 h) [nM] | IC50 [12] [nM] | IC50 [13] [nM] | IC50 [14] [nM] | Structure (SMILES) | CK1a substrate protein remaining % [1, 15] | Weel substrate protein remaining % [2, 15] | GSPT1 substrate protein remaining % [3, 15] | IKZF3 substrate protein remaining % [5, 15] | IKZF2 substrate protein remaining % [7, 15] | IKZF 1 substrate protein remaining % [11, 15] | also measured
1 | 10 to 50 | 500 to 1000 | 10 to 50 | 10 to 50 | 50 to 100 | – | – | O=C1CCC(N2Cc3cc(CN4CCN(c5cc(F)ccc5F)CC4)ccc3C2=O)C(=O)N1 (stereo not drawn) [GT-04539, 3-(5-((4-(2,5-difluorophenyl)piperazin-1-yl)methyl)-1-oxoisoindolin-2-yl)piperidine-2,6-dione] | A (0% ≤ substrate protein remaining % ≤ 80%) | A (0% ≤ substrate protein remaining % ≤ 80%) | A (0% ≤ substrate protein remaining % ≤ 80%) | A (0% ≤ substrate protein remaining % ≤ 80%) | A (0% ≤ substrate protein remaining % ≤ 80%) | A (0% ≤ substrate protein remaining % ≤ 80%) | –
2 | 100 to 500 | 500 to 1000 | 100 to 500 | 100 to 500 | – | – | – | O=C1CCC(N2Cc3cc(CN4CCN(c5ccsc5)CC4)ccc3C2=O)C(=O)N1 (stereo not drawn) [GT-04547, 3-(1-oxo-5-((4-(thiophen-3-yl)piperazin-1-yl)methyl)isoindolin-2-yl)piperidine-2,6-dione] | A (0% ≤ substrate protein remaining % ≤ 80%) | A (0% ≤ substrate protein remaining % ≤ 80%) | A (0% ≤ substrate protein remaining % ≤ 80%) | A (0% ≤ substrate protein remaining % ≤ 80%) | A (0% ≤ substrate protein remaining % ≤ 80%) | A (0% ≤ substrate protein remaining % ≤ 80%) | –
3 | 1 to 5 | 500 to 1000 | 1 to 5 | – | 5 to 10 | 10 to 50 | 10 to 50 | O=C1CCC(N2Cc3c(ccc(CN4CCN(c5cccc(Cl)c5Cl)CC4)c3F)C2=O)C(=O)N1 (stereo not drawn) [GT-04526, 3-(5-((4-(2,3-dichlorophenyl)piperazin-1-yl)methyl)-4-fluoro-1-oxoisoindolin-2-yl)piperidine-2,6-dione] | A (0% ≤ substrate protein remaining % ≤ 80%) | A (0% ≤ substrate protein remaining % ≤ 80%) | A (0% ≤ substrate protein remaining % ≤ 80%) | A (0% ≤ substrate protein remaining % ≤ 80%) | A (0% ≤ substrate protein remaining % ≤ 80%) | A (0% ≤ substrate protein remaining % ≤ 80%) | –
4 | – | 500 to 1000 | 10 to 50 | – | – | 100 to 500 | 100 to 500 | O=C1CCC(N2Cc3cc(CN4CCC(c5c[nH]c6ncccc56)CC4)ccc3C2=O)C(=O)N1 (stereo not drawn) [GT-04603, 3-(5-((4-(1H-pyrrolo[2,3-b]pyridin-3-yl)piperidin-1-yl)methyl)-1-oxoisoindolin-2-yl)piperidine-2,6-dione] | A (0% ≤ substrate protein remaining % ≤ 80%) | A (0% ≤ substrate protein remaining % ≤ 80%) | A (0% ≤ substrate protein remaining % ≤ 80%) | A (0% ≤ substrate protein remaining % ≤ 80%) | A (0% ≤ substrate protein remaining % ≤ 80%) | A (0% ≤ substrate protein remaining % ≤ 80%) | –

The next lines start with the compound.

Row | Structure (SMILES) | IC50 [6] [nM] | IC50 [8] [nM] | IC50 [9] [nM] | IC50 ([10]; 96 h) [nM] | IC50 [12] [nM] | IC50 [13] [nM] | IC50 [14] [nM] | CK1a substrate protein remaining % [1, 15] | Weel substrate protein remaining % [2, 15] | GSPT1 substrate protein remaining % [3, 15] | IKZF3 substrate protein remaining % [5, 15] | IKZF2 substrate protein remaining % [7, 15] | IKZF 1 substrate protein remaining % [11, 15] | also measured
5 | COc1ccc(N2CCN(Cc3ccc4c(c3)CN(C3CCC(=O)NC3=O)C4=O)CC2)cc1 (stereo not drawn) [GT-04447, 3-(5-((4-(4-methoxyphenyl)piperazin-1-yl)methyl)-1-oxoisoindolin-2-yl)piperidine-2,6-dione] | 100 to 500 | 1000 to 1500 | 100 to 500 | 100 to 500 | – | – | – | B (80%< substrate protein remaining %≤ 100%) | B (80%< substrate protein remaining %≤ 100%) | A (0% ≤ substrate protein remaining % ≤ 80%) | A (0% ≤ substrate protein remaining % ≤ 80%) | A (0% ≤ substrate protein remaining % ≤ 80%) | A (0% ≤ substrate protein remaining % ≤ 80%) | IC50 [4]: 100 to 500 nM
6 | O=C1CCC(N2C(=O)c3ccc(CN4CCC(c5ncc6ccsc6n5)CC4)cc3C2=O)C(=O)N1 (stereo not drawn) [GT-06652, 2-(2,6-dioxopiperidin-3-yl)-5-((4-(thieno[2,3-d]pyrimidin-2-yl)piperidin-1-yl)methyl)isoindoline-1,3-dione] | – | – | – | – | – | – | – | – | – | – | – | – | – | CK1a substrate protein remaining % [1, 16]: B (80%< substrate protein remaining %≤ 100%); Weel substrate protein remaining % [2, 16]: A (0% ≤ substrate protein remaining % ≤ 80%); GSPT1 substrate protein remaining % [3, 16]: A (0% ≤ substrate protein remaining % ≤ 80%); IKZF3 substrate protein remaining % [5, 16]: B (80%< substrate protein remaining %≤ 100%); IKZF2 substrate protein remaining % [7, 16]: A (0% ≤ substrate protein remaining % ≤ 80%); IC50 [10]: 100 to 500 nM; IKZF 1 substrate protein remaining % [11, 16]: B (80%< substrate protein remaining %≤ 100%)
7 | O=C1CCC(N2Cc3cc(CN4CCN(c5cccc(Cl)c5Cl)CC4)cc(F)c3C2=O)C(=O)N1 (stereo not drawn) [GT-04445, 3-(5-((4-(2,3-dichlorophenyl)piperazin-1-yl)methyl)-7-fluoro-1-oxoisoindolin-2-yl)piperidine-2,6-dione] | – | 500 to 1000 | 100 to 500 | 100 to 500 | – | – | – | B (80%< substrate protein remaining %≤ 100%) | B (80%< substrate protein remaining %≤ 100%) | A (0% ≤ substrate protein remaining % ≤ 80%) | A (0% ≤ substrate protein remaining % ≤ 80%) | A (0% ≤ substrate protein remaining % ≤ 80%) | A (0% ≤ substrate protein remaining % ≤ 80%) | IC50 [4]: 100 to 500 nM
8 | O=C1CCC(N2Cc3cc(CN4CCN(c5cnnc(Cl)c5Cl)CC4)ccc3C2=O)C(=O)N1 (stereo not drawn) [GT-04544, 3-(5-((4-(5,6-dichloropyridazin-4-yl)piperazin-1-yl)methyl)-1-oxoisoindolin-2-yl)piperidine-2,6-dione] | – | 500 to 1000 | – | – | 50 to 100 | – | – | A (0% ≤ substrate protein remaining % ≤ 80%) | A (0% ≤ substrate protein remaining % ≤ 80%) | A (0% ≤ substrate protein remaining % ≤ 80%) | A (0% ≤ substrate protein remaining % ≤ 80%) | A (0% ≤ substrate protein remaining % ≤ 80%) | A (0% ≤ substrate protein remaining % ≤ 80%) | –
9 | O=C1CCC(N2Cc3cc(CN4CCN(c5cccs5)CC4)ccc3C2=O)C(=O)N1 (stereo not drawn) [GT-04545, 3-(1-oxo-5-((4-(thiophen-2-yl)piperazin-1-yl)methyl)isoindolin-2-yl)piperidine-2,6-dione] | – | < 500 | – | – | 100 to 500 | – | – | A (0% ≤ substrate protein remaining % ≤ 80%) | A (0% ≤ substrate protein remaining % ≤ 80%) | A (0% ≤ substrate protein remaining % ≤ 80%) | A (0% ≤ substrate protein remaining % ≤ 80%) | A (0% ≤ substrate protein remaining % ≤ 80%) | A (0% ≤ substrate protein remaining % ≤ 80%) | –
10 | Cc1cscc1N1CCN(Cc2ccc3c(c2)CN(C2CCC(=O)NC2=O)C3=O)CC1 (stereo not drawn) [GT-04548, 3-(5-((4-(4-methylthiophen-3-yl)piperazin-1-yl)methyl)-1-oxoisoindolin-2-yl)piperidine-2,6-dione] | 10 to 50 | 500 to 1000 | 10 to 50 | 10 to 50 | – | 500 to 1000 | 500 to 1000 | A (0% ≤ substrate protein remaining % ≤ 80%) | A (0% ≤ substrate protein remaining % ≤ 80%) | A (0% ≤ substrate protein remaining % ≤ 80%) | A (0% ≤ substrate protein remaining % ≤ 80%) | A (0% ≤ substrate protein remaining % ≤ 80%) | A (0% ≤ substrate protein remaining % ≤ 80%) | –
